# Source: patent US20210038545A1 (priority 2018, published 2021)
# System: S. pneumoniae
# Conditions: mice colonized with IAV (H1N1, 7 dpi) microbiota; acetate five days before 1×10^6 CFUs; vs vehicle-treated transplanted animals; FIG. 4A
compound,measurement,value
CC(=O)O [acetate],resistance to S. pneumoniae challenge,more resistant
